Measurements taken from paper PMC11980376, “Lactate dehydrogenase is the Achilles’ heel of Lyme disease bacterium Borreliella burgdorferi” (mBio, 2025).

Columns and labels:
BbLDH [1] = target: T1, BbLDH (Borreliella burgdorferi, UniProt O51114); experiment: Enzyme kinetics of inhibition with varying pyruvate as substrate, 0–100 µM inhibitor; type: biochemical; details: for type of inhibition for pyruvate substrate (Lineweaver–Burk plots): Fig. S7
T1 construct: we expressed and purified a full-length N-terminal His- and FLAG-tagged BB_0087 recombinant protein (rBB_0087); 10xHis (N); FLAG (N); made in house; host or cells: E. coli Rosetta-gami 2 (DE3)
Procedure: The inhibitory effect of gossypol and the four lead inhibitors of BbLDH was performed using 0–100 µM of inhibitors or an equal volume of DMSO vehicle in 50 mM Tris-HCl buffer (pH 7.0) containing 100 ng of BbLDH, 0.5 mM NADH, 2.4 mM pyruvate, and 3 mM FBP at 37°C. All experiments were repeated at least twice. The amount of NADH produced or consumed was extrapolated from the NADH standard curve and plotted in GraphPad Prism 10 (GraphPad Software, La Jolla, CA, USA) using Allosteric Sigmoidal mode to obtain the Vmax and Km values. Lineweaver–Burk plots were generated using the mean reciprocal values of substrates and velocities obtained from the inhibition studies.

HeLa cells = experiment: Cell viability, crystal violet assay, 72 h; type: cell-based, human
Procedure: (§1) Immortalized cervical carcinoma cells (HeLa) and TIGKs were purchased from ATCC. HeLa cells were cultured and maintained in Dulbecco’s Modified Eagle Medium with high glucose and supplemented with 10% FBS and 100 µg/mL of penicillin and streptomycin. TIGK cells were cultured in a serum-free keratinocyte growth medium (KGM; Lifeline Cell Technology, MD) as described previously ([56]). Cells were incubated at 37°C, 5% CO2 incubator.
(§2) To determine the toxicity of LDH inhibitors on eukaryotic cells, HeLa and TIGK cells were seeded onto a 96-well plate at 10^4 cells per well the day before drug treatment. Cell culture media were removed the next day and replaced with culture media containing the specified concentration of DMSO, gossypol, 45923, or 350085. Mock-treated wells were included for cell viability normalization purposes. Cells were incubated with inhibitors for 72 h. To determine the cell viability, the crystal violet assay was used as described ([57]). Briefly, cell culture media were decanted from the 96-well plate and washed once with water. A volume of 50 µL of 0.5% crystal violet staining solution (0.5 g crystal violet powder, 80 mL ddH2O, 20 mL methanol) were incubated for 20 min at room temperature (RT) with gentle shaking. Plates were washed 4–5 times by soaking in ddH2O followed by gentle tapping to remove any remaining liquid. Plates were air-dried at RT. A 200 µL of methanol was added to each well. The resulting plates were incubated for 20 min at RT with gentle shaking followed by optical density measurement at 570 nm (OD570) using a Varioskan LUX multimode microplate reader (Thermo Fisher Scientific). The OD570 of mock cells was set to 100% and the percentage of viable cells treated with inhibitors was determined by comparing the average OD570 values of treated wells to mock wells. The experiment was performed in triplicate wells with two technical replicates and two biological replicates. Two-way analysis of variance was used for statistical analysis with significant values of P < 0.05.

[2] = test system: telomerase immortalized gingival keratinocytes (TIGKs); experiment: Cell viability, crystal violet assay, 72 h; type: cell-based, human
Procedure: as §1, §2

BbLDH [3] = target: T1, BbLDH; experiment: Small compound library screening (Natural Products Set IV) for inhibition of BbLDH activity; type: biochemical; details: Extended Data Fig. 7A
Procedure: To identify potential novel LDH inhibitors against BbLDH, the Natural Products Set IV library containing 419 natural compounds selected from the DTP Open Repository collection was obtained from the National Cancer Institute (NCI). All compounds were dissolved in DMSO to a working stock solution of 10 mM. Primary screening was performed using a label-free HTS protocol ([54]) in 384-well plates. Buffer B (20 mM Tris pH 7.4, 0.005% Triton X-100, 0.005% BGG, 2 mM DTT) containing 10 nM BbLDH, 75 µM pyruvate, and 50 µM NADH was dispensed into each well containing pre-dispensed inhibitors to a final concentration of 10 µM in 50 µL working volume per well. Fluorescence was measured using an excitation wavelength of 340 nm and an emission wavelength of 482 nm. Readings were recorded every second over a total duration of 5 min. Gossypol and DMSO were included as positive and negative controls, respectively. Fluorescent signals were plotted over time for each compound and analyzed using linear regression to determine the slope of reduction compared to DMSO and gossypol. Twenty-three compounds with a reduced slope in comparison to DMSO were selected for a second round of screening.
For the secondary screening, a lactate dehydrogenase activity assay kit (Sigma Aldrich) was used to determine the inhibitory effect of selected small compounds on BbLDH activity. Reactions were performed following the manufacturer’s protocol using 10 and 25 µM of small compounds and 10 nM BbLDH per well. Gossypol and DMSO were included as positive and negative controls, respectively. Compounds that reduced the LDH activity of BbLDH compared to DMSO treatment wells were selected for further analysis.

BB_0087 (BbLDH) = target: T2, BB_0087 (BbLDH) (Borreliella burgdorferi, UniProt O51114); experiment: Lactate dehydrogenase activity assay kit, NADH generation from lactate by recombinant BB_0087; type: biochemical; details: 100 µM gossypol; 50 ng purified recombinant protein
T2 construct: we expressed and purified a full-length N-terminal His- and FLAG-tagged BB_0087 recombinant protein (rBB_0087); 10xHis (N); FLAG (N); made in house; host or cells: E. coli Rosetta-gami 2 (DE3)
Procedure: To establish the LDH activity of BbLDH, we first used a commercial lactate dehydrogenase activity assay kit (Sigma Aldrich, St. Louis, MO) to measure the ability of BbLDH to reduce NAD to NADH following the manufacturer’s instruction. Commercial LDH inhibitor gossypol (catalog # G8761, Sigma Aldrich) was dissolved in DMSO at a stock concentration of 100 mM. A concentration of 1 µg/µL of recombinant wild-type or H178A BbLDH stocks was diluted 1:20 in the LDH assay buffer to a final working volume of 400 µL per well. A 100 µM of gossypol or DMSO was added to selected wild-type BbLDH wells to determine the inhibitory effect of gossypol on BbLDH activity. Reactions were set up in triplicate wells along with NADH standards. The LDH activity was calculated using the formulation provided by the manufacturer.

B. burgdorferi = experiment: In vitro growth analysis of wild-type B. burgdorferi with inhibitors, Petroff-Hausser counting; type: cell-based, Borreliella burgdorferi; details: 0–300 µM tested, BSK-II medium, 34°C
Procedure: To measure the growth of the WT B31 A3-68 and 87^mut, 87^mut was first cultivated in the presence of 1 mM IPTG until the stationary phase along with the WT. Cells were harvested via centrifugation and washed with PBS to remove all traces of IPTG. A concentration of 1 × 10^5 cells/mL of WT or 87^mut were inoculated into 10 mL of fresh BSK-II and incubated at 34°C with or without 1 mM IPTG. Bacterial cells were enumerated daily until the cells entered the stationary growth phase (~1 × 10^8 cells/mL) using a Petroff-Hausser counting chamber, as previously described ([100]). At the end of the growth study, cultures were harvested for immunoblot analysis to detect the expression of BbLDH. Growth analyses were repeated in triplicates, and the results were expressed as the means ± standard errors of the means (SEM). To determine the growth inhibition of LDH inhibitors on B. burgdorferi, 10^5 cells/mL of stationary WT cultures were inoculated into a fresh 5 mL BSK-II medium containing the specified concentration of inhibitors. Equal volumes of DMSO were included as negative controls to rule out the inhibitory effect of DMSO on the growth of B. burgdorferi. Cells were maintained at 34°C with a 3.4% CO2 incubator, and cell numbers were enumerated every 2 days until the cells reached the stationary growth phase using the Petroff-Hausser counting chamber.

BbLDH [4] = target: T1, BbLDH; experiment: Enzyme kinetics of inhibition, lactate to pyruvate reaction, NADH read at OD340; type: biochemical; details: Fig. 1F
Procedure: The enzyme kinetics of BbLDH, with substrates pyruvate or lactate, was monitored by the reduction or oxidation of NADH at OD340 as previously described ([92]) using a Varioskan LUX multimode microplate reader (Thermo Fisher Scientific, Rockford, IL) with minor modifications. Briefly, the conversion of pyruvate to lactate activity was performed at 37°C in 50 mM Tris-HCl buffer pH 7.0 containing 100 ng of BbLDH, 0.5 mM NADH, 2.4 mM pyruvate and with/without 3 mM FBP. The conversion of lactate to pyruvate activity was measured at 37°C in sodium bicarbonate buffer (pH 7.0) containing 100 ng of BbLDH, 1 mM NAD^+, 0–300 mM sodium L-lactate, with/without 3 mM FBP. The kinetic parameters of BbLDH were determined using 0–6.0 mM pyruvate, 0–1.0 mM NADH, 0–2.0 mM NAD^+, 50 mM Tris-HCl buffer, pH 5.0–10.0, or reaction temperature of 25°C, 30°C, and 37°C. All reactions were performed in 96-well plates with a final volume of 200 µL per well.
All experiments were repeated at least twice. The amount of NADH produced or consumed was extrapolated from the NADH standard curve and plotted in GraphPad Prism 10 (GraphPad Software, La Jolla, CA, USA) using Allosteric Sigmoidal mode to obtain the Vmax and Km values. Lineweaver–Burk plots were generated using the mean reciprocal values of substrates and velocities obtained from the inhibition studies.

T1 sequence (O51114 whole entry): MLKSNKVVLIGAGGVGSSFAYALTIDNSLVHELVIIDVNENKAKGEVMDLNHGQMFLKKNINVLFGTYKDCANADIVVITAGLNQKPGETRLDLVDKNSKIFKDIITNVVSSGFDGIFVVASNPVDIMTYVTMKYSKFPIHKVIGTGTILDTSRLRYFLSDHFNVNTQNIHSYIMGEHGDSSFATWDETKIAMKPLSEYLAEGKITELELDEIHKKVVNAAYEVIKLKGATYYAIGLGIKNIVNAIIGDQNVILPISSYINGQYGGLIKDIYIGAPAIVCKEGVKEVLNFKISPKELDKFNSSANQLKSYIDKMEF
T2 sequence (O51114 whole entry): as above

| Structure (SMILES) | Ki (BbLDH [1]) | type of inhibition for pyruvate substrate (Lineweaver–Burk plots) (BbLDH [1]) | concentration at which growth inhibition of HeLa cells begins (HeLa cells) | concentration at which toxicity to TIGKs begins ([2]; crystal violet, non-cancerous cell line) | reduction in LDH activity (hit cutoff) (BbLDH [3]) | LDH activity of BB_0087 (NADH generated from lactate) upon treatment (BB_0087 (BbLDH)) | concentration at which inhibitory effect on growth was observed (B. burgdorferi) | Ki (BbLDH [4]) | Ki (BbLDH [1]; varying pyruvate as substrate, 0.5 mM NADH, 3 mM FBP, pH 7.0, 37°C, Fig. 5, read-out: Ki) | concentration at which toxicity to TIGKs begins ([2]; human) |
| --- | --- | --- | --- | --- | --- | --- | --- | --- | --- | --- |
| COc1ccc2c(c1)O[C@H]1c3ccc(O)cc3OC[C@@H]21 (stereo in doubt) [compound 350085, Medicarpin] | 205 µM | competitive inhibitors | 5 µM | 20 µM | ≥ 75% |  |  |  |  |  |
| Cc1cc2c(C(C)C)c(O)c(O)c(C=O)c2c(O)c1-c1c(C)cc2c(C(C)C)c(O)c(O)c(C=O)c2c1O [gossypol] | 36 µM | uncompetitive inhibition |  |  |  | completely abolished | 100 µM | 13 µM |  |  |
| COc1c2occc2cc2ccc(=O)oc12 [compound 45923, Methoxsalen] |  | competitive inhibitors | 10 µM |  | ≥ 75% |  | 100 µM |  | 54 µM | > 50 µM |
| CCC(C)(O)C(=O)OC1C(=O)OC2CC3C(C)=CC(O)C(O)C3(C)C3C4(O)OCC23C1C(C)C4O (stereo not drawn) [compound 14975] | 66 µM | competitive inhibitors |  |  |  |  |  |  |  |  |
| CCC(C)c1occ2c(O)c(C(=O)O)c(=O)cc-2c1C (stereo not drawn) [compound 114344] | 349 µM | competitive inhibitors |  |  | ≥ 75% |  |  |  |  |  |
